US6248739A, “Quinolinecarboxamides as antiviral agents” (Pharmacia & Upjohn Company, priority 1999, dated 2001)

Target: T1, HCMV polymerase (Human cytomegalovirus, UniProt P08546)
T1 construct: made in house; host or cells: recombinant baculovirus-infected SF-9 insect cells
Assay: biochemical
Settings: HCMV polymerase; SPA; modified assay: compounds in 100% DMSO, 4.5 mM DTT
Method: The HCMV polymerase assay is performed using a scintillation proximity assay (SPA) as described in several references, such as N. D. Cook, et al., Pharmaceutical Manufacturing International, pages 49-53 (1992); K. Takeuchi, Laboratory Practice, September issue (1992); U.S. Pat. No. 4,568,649 (1986); which are incorporated by reference herein. Reactions are performed in 96-well plates. The assay is conducted in 100 μl volume with 5.4 mM HEPES (pH 7.5), 11.7 mM KCl, 4.5 mM MgCl2, 0.36 mg/ml BSA, and 90 nM ^3 H-dTTP. Assays are run with and without CHAPS, (3-[(3-Cholamidopropyl)dimethylammonio]-1-propane-sulfonate) at a final concentration of 2 mM. HCMV polymerase is diluted in enzyme dilution buffer containing 50% glycerol, 250 mM NaCl, 10 mM HEPES (pH 7.5), 100 μg/ml BSA, and 0.01% sodium azide. The HCMV polymerase, which is expressed in recombinant baculovirus-infected SF-9 cells and purified according to literature procedures, is added at 10% (or 10 μl) of the final reaction volume, i.e., 100 μl. Compounds are diluted in 50% DMSO and 10 μl are added to each well. Control wells contain an equivalent concentration of DMSO. Unless noted otherwise, reactions are initiated via the addition of 6 nM biotinylated poly(dA)-oligo(dT) template/primer to reaction mixtures containing the enzyme, substrate, and compounds of interest. Plates are incubated in a 25 C. or 37 C. H2 O bath and terminated via the addition of 40 μl/reaction of 0.5 M EDTA (pH 8) per well. Reactions are terminated within the time-frame during which substrate incorporation is linear and varied depending upon the enzyme and conditions used, i.e., 30 min. for HCMV polymerase. Ten μl of streptavidin-SPA beads (20 mg/ml in PBS/10% glycerol) are added following termination of the reaction. Plates are incubated 10 min. at 37 C., then equilibrated to room temperature, and counted on a Packard Topcount. Linear regressions are performed and IC50 's are calculated using computer software.
A modified version of the above HCMV polymerase assay is performed as described above, but with the following changes: Compounds are diluted in 100% DMSO until final dilution into assay buffer. In the previous assay, compounds are diluted in 50% DMSO. 4.5 mM dithiotherotol (DTT) is added to the polymerase buffer.

T1 sequence (P08546 whole entry): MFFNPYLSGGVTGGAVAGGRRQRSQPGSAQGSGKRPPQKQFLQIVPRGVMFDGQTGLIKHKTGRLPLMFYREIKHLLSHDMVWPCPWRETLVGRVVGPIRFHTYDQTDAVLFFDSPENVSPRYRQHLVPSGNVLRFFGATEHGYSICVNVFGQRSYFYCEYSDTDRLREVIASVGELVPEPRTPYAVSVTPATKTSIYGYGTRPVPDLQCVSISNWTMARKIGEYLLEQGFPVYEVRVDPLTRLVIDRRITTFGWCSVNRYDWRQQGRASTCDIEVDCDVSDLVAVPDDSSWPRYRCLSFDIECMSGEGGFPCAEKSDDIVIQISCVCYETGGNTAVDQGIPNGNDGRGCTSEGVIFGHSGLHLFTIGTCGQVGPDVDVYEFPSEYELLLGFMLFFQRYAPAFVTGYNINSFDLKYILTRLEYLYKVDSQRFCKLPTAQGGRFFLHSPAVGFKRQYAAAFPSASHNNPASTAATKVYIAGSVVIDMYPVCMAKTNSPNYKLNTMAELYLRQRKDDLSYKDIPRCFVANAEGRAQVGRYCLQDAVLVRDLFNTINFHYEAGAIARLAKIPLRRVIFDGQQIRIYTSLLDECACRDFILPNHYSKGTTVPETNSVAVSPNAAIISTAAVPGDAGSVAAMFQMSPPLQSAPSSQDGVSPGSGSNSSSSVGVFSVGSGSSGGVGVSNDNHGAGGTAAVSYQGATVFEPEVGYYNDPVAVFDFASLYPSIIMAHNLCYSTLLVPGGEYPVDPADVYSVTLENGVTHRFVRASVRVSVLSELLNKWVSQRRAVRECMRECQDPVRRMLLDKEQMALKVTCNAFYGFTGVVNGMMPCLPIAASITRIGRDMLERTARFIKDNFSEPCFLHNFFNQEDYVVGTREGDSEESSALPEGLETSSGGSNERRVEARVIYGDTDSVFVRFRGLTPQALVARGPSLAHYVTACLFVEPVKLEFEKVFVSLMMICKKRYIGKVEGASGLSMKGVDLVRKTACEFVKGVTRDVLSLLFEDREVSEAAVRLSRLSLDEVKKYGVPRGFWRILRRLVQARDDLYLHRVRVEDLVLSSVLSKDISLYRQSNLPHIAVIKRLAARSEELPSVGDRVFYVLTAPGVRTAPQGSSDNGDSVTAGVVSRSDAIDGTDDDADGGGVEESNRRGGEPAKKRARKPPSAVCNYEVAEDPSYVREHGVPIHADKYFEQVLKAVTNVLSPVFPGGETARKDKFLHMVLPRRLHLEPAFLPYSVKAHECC

In order of falling IC50:
1. CN(CCO)Cc1ccc2c(c1)c(=O)c(C(=O)NCc1ccc(Cl)cc1)cn2C [Example 45, N-(4-Chlorobenzyl)-6-(((2-hydroxyethyl)(methyl)amino)-methyl)-1-methyl-4-oxo-1,4-dihydro-3-quinolinecarboxamide]  11900 nM
2. Cn1cc(C(=O)NCc2ccc(Cl)cc2)c(=O)c2cc(CN(CCO)Cc3ccccc3)ccc21 [Example 50, 6-((Benzyl(2-hydroxyethyl)amino)methyl)-N-(4-chlorobenzyl)-1-methyl-4-oxo-1,4-dihydro-3-quinolinecarboxamide]  11500 nM
3. Cn1cc(C(=O)NCc2ccc(Cl)cc2)c(=O)c2cc(CN3CCC(F)(F)CC3)ccc21 [Example 52, N-(4-chlorobenzyl)-6-((4,4-difluoro-1-piperidinyl)methyl)-1-methyl-4-oxo-1,4-dihydro-3-quinolinecarboxamide]  9600 nM
4. Cn1cc(C(=O)NCc2ccc(C#N)cc2)c(=O)c2cc(C#CCO)ccc21 [Example 43, N-(4-Cyanobenzyl)-6-(3-hydroxy-1-propynyl)-1-methyl-4-oxo-1,4-dihydro-3-quinolinecarboxamide]  9400 nM
5. COCCOCCn1cc(C(=O)NCc2ccc(Cl)cc2)c(=O)c2cc(CN(C)CC(O)c3ccccc3)ccc21 (stereo not drawn) [Example 89, N-(4-Chlorobenzyl)-6-{[(2-hydroxy-2-phenylethyl)(methyl)amino]methyl}-1-[2-(2-methoxyethoxy)ethyl]-4-oxo-1,4-dihydro-3-quinoline-carboxamide]  6700 nM
6. COCCOCCn1cc(C(=O)NCc2ccc(Cl)cc2)c(=O)c2cc(CN3CCC(=O)CC3)ccc21 [Example 85, N-(4-Chlorobenzyl)-1-[2-(2-methoxyethoxy)ethyl]-4-oxo-6-[(4-oxo-1-piperidinyl)methyl]-1,4-dihydro-3-quinolinecarboxamide]  6000 nM
7. Cn1cc(C(=O)NCc2ccc(Cl)cc2)c(=O)c2cc(CN3CCCOCC3)ccc21 [Example 46, N-(4-Chlorobenzyl)-1-methyl-6-(1,4-oxazepan-4-ylmethyl)-4-oxo-1,4-dihydro-3-quinolinecarboxamide]  5500 nM
8. COCCOCCn1cc(C(=O)NCc2ccc(Cl)cc2)c(=O)c2cc(CN(C)CC(O)c3ccc(O)cc3)ccc21 (stereo not drawn) [Example 90, N-(4-Chlorobenzyl)-6-{[[2-hydroxy-2-(4-hydroxyphenyl)ethyl](methyl)amino]methyl}-1-[2-(2-methoxyethoxy)ethyl]-4-oxo-1,4-dihydro-3-quinolinecarboxamide]  4400 nM
9. O=C(NCc1ccc(Cl)cc1)c1cn(CCCN2CCCCC2)c2ccc(C#CCO)cc2c1=O [Example 15, N-(4-Chlorobenzyl)-6-(3-hydroxy-1-propynyl)-1-[3-(1-piperidinyl)propyl]-4-oxo-1,4-dihydro-3-quinolinecarboxamide]  4100 nM
10. COCCOCCn1cc(C(=O)NCc2ccc(Cl)cc2)c(=O)c2cc(CN3CC[C@@H](O)C3)ccc21 [Example 87, N-(4-Chlorobenzyl)-6-{[(3R)-3-hydroxypyrrolidinyl]methyl}-1-[2-(2-methoxyethoxy)ethyl]-4-oxo-1,4-dihydro-3-quinolinecarboxamide]  4000 nM
11. C=Cc1ccc2c(c1)c(=O)c(C(=O)NCc1ccc(Cl)cc1)cn2C [Example 54, N-(4-Chlorobenzyl)-1-methyl-4-oxo-6-vinyl-1,4-dihydro-3-quinolinecarboxamide]  3300 nM
12. O=C(OCCOCn1cc(C(=O)NCc2ccc(Cl)cc2)c(=O)c2cc(CN3CCOCC3)ccc21)c1ccccc1 [Example 106, 2-{[3-{[(4-Chlorobenzyl)amino]carbonyl}-6-(4-morpholinylmethyl)-4-oxo-1(4H)-quinolinyl]methoxy}ethyl benzoate]  3100 nM
13. O=C(NCc1ccc(Cl)cc1)c1cn(CCSc2ccccc2)c2ccc(CN3CCOCC3)cc2c1=O [Example 72]  3000 nM
14. COCCOCCOCCn1cc(C(=O)NCc2ccc(Cl)cc2)c(=O)c2cc(CN3CCOCC3)ccc21 [Example 56, N-(4-Chlorobenzyl)-1-{2-[2-(2-methoxyethoxy)ethoxy]ethyl}-6-(4-morpholinylmethyl)-4-oxo-1,4-dihydro-3-quinolinecarboxamide]  3000 nM
15. CN(C)n1cc(C(=O)NCc2ccc(Cl)cc2)c(=O)c2cc(C#CCO)ccc21 [Example 120, N-(4-Chlorobenzyl)-1-(dimethylamino)-6-(3-hydroxy-1-propynyl)-4-oxo-1,4-dihydro-3-quinolinecarboxamide]  2500 nM
16. CC(C)(C)n1cc(C(=O)NCc2ccc(Cl)cc2)c(=O)c2cc(C#CCO)ccc21 [Example 39]  2200 nM
17. CC(C)(C)OC(=O)Cn1cc(C(=O)NCc2ccc(Cl)cc2)c(=O)c2cc(C#CCO)ccc21 [Example 28, tert-Butyl 2-[3-{[(4-chlorobenzyl)amino]carbonyl}-6-(3-hydroxy-1-propynyl)-4-oxo-1(4H)-quinolinyl]acetate]  1800 nM
18. Cn1cc(C(=O)NCc2ccc(Cl)cc2)c(=O)c2cc(CCCO)cc(OC(CO)CO)c21 [Example 5, N-(4-Chlorobenzyl)-8-[2-hydroxy-1-(hydroxymethyl)ethoxy]-6-(3-hydroxypropyl)1-methyl-4-oxo-1,4-dihydro-3-quinolinecarboxamide]  1600 nM
19. CN(Cc1ccc2c(c1)c(=O)c(C(=O)NCc1ccc(Cl)cc1)cn2C)CC(O)c1ccccc1 (stereo not drawn) [Example 63, N-(4-Chlorobenzyl)-6-{[(2-hydroxy-2-phenylethyl)(methyl)-amino]methyl}-1-methyl-4-oxo-1,4-dihydro-3quinolinecarboxamide]  1300 nM
20. O=C(NCc1ccc(F)cc1)c1cn(N2CCOCC2)c2ccc(CN3CCOCC3)cc2c1=O [Example 125, N-(4-Fluorobenzyl)-1-(4-morpholinyl)-6-(4-morpholinylmethyl)-4-oxo-1,4-dihydro-3-quinolinecarboxamide]  1100 nM
21. Cn1cc(C(=O)NCc2ccc(Cl)cc2)c(=O)c2cccc(C#CCO)c21 [Example 96, N-(4-Chlorobenzyl)-8-(3-hydroxy-1-propynyl)-1-methyl-4-oxo-1,4-dihydro-3-quinolinecarboxamide]  1000 nM
22. O=C(NCc1ccc(Cl)cc1)c1cn(CCN(CCO)CCO)c2ccc(CN3CCOCC3)cc2c1=O [Example 64]  950 nM
23. CCS(=O)(=O)CCn1cc(C(=O)NCc2ccc(Cl)cc2)c(=O)c2cc(CN3CCOCC3)ccc21 [Example 69, N-(4-Chlorobenzyl)-1-[2-(ethylsulfonyl)ethyl]-6-(4-morpholinylmethyl)-4-oxo-1,4-dihydro-3-quinolinecarboxamide]  900 nM
24. O=C(NCc1ccc(Cl)cc1)c1cn(N2CCCCC2)c2ccc(CN3CCOCC3)cc2c1=O [Example 114, N-(4-Chlorobenzyl)-6-(4-morpholinylmethyl)-4-oxo-1-(1-piperidinyl)-1,4-dihydro-3-quinolinecarboxamide]  880 nM
25. O=C(NCc1ccc(Cl)cc1)c1cn(CCCS(=O)(=O)CCCO)c2ccc(CN3CCOCC3)cc2c1=O [Example 71, N-(4-Chlorobenzyl)-1-(3-[(3-hydroxypropyl)sulfonyl]propyl)-6-(4-morpholinylmethyl)-4-oxo-1,4-dihydro-3-quinolinecarboxamide]  800 nM
26. Cn1cc(C(=S)NCc2ccc(Cl)cc2)c(=O)c2cc(C#CCO)ccc21 [Example 94, N-(4-chlorobenzyl)-6-(3-hydroxy-1-propynyl)-1-methyl4-oxo-1,4-dihydro-3-quinolinecarbothioamide]  770 nM
27. O=C(NCc1ccc(Cl)cc1)c1cn(C2CCS(=O)(=O)CC2)c2ccc(CN3CCOCC3)cc2c1=O [Example 111, N-(4-Chlorobenzyl)-1-(1,1-dioxohexahydro-thiopyran-4-yl)-6-(4-morpholinylmethyl)-4-oxo-1,4-dihydro-3-quinolinecarboxamide]  730 nM
28. O=C(NCc1ccc(Cl)cc1)c1cn(N2CCCC2)c2ccc(CN3CCOCC3)cc2c1=O [Example 115, N-(4-Chlorobenzyl)-6-(4-morpholinylmethyl)-4-oxo-1-(1-pyrrolidinyl)-1,4-dihydro-3-quinolinecarboxamide]  620 nM
29. O=C(NCc1ccc(Cl)cc1)c1cn(C[S+]([O-])c2ccccc2)c2ccc(CN3CCOCC3)cc2c1=O (stereo not drawn) [Example 81, N-(4-Chlorobenzyl)-6-(4-morpholinylmethyl)-4-oxo-1-[(phenylsulfinyl)methyl]-1,4-dihydro-3-quinolinecarboxamide]  350 nM
30. Cn1cc(C(=O)NCc2ccc(Cl)cc2)c(=O)c2cc(CN3CC(O)(O)C3)ccc21 [Example 78, N-(4-Chlorobenzyl)-6-[(3,3-dihydroxy-1-azetidinyl)methyl]-1-methyl-4-oxo-1,4-dihydro-3-quinolinecarboxamide]  270 nM
